Assay results: the OligoGym collection
Values joined by “and” are separate entries in the source; they are usually repeats but may differ in a detail not shown here. Identical values can stand only once. HELM strings list units from the 5' end as sugar, base in round brackets, then linkage (d deoxyribose, r ribose, m 2'-O-methyl, p phosphodiester). Strings are as the collection lists them, not checked against the first reports. ss, as = sense and antisense strand; [fl2r] = 2'-fluoro

Conditions: siRNA
Note: test system not given here.

Substance	target mRNA knockdown
RNA1{[fl2r](A)p.[fl2r](A)p.r(C)p.r(C)p.r(C)p.[fl2r](A)p.r(C)p.r(C)p.[fl2r](A)p.r(C)p.[fl2r](A)p.r(G)p.r(C)p.[fl2r](U)p.[fl2r](A)p.r(G)p.[fl2r](A)p.[fl2r](A)p.r(C)p.[fl2r](U)p.[fl2r](U)}|RNA2{r(A)p.r(A)p.r(G)p.r(U)p.r(U)p.r(C)p.r(U)p.r(A)p.r(G)p.r(C)p.r(U)p.r(G)p.r(U)p.r(G)p.r(G)p.r(U)p.r(G)p.r(G)p.r(G)p.r(U)p.r(U)}$$$RNA1{StrandType:ss}|RNA2{StrandType:as}$	37% and 54%
RNA1{[fl2r](A)p.r(A)p.[fl2r](A)p.r(C)p.[fl2r](C)p.r(A)p.[fl2r](G)p.r(G)p.[fl2r](A)p.r(A)p.[fl2r](G)p.r(G)p.[fl2r](G)p.r(G)p.[fl2r](A)p.r(A)p.[fl2r](A)p.r(U)p.[fl2r](C)p.r(T)p.r(T)}|RNA2{r(G)p.[fl2r](A)p.r(U)p.r(U)p.r(U)p.r(C)p.r(C)p.r(C)p.r(C)p.r(U)p.r(U)p.r(C)p.r(C)p.r(U)p.r(G)p.r(G)p.r(U)p.r(U)p.r(U)p.r(T)p.r(T)}$$$RNA1{StrandType:ss}|RNA2{StrandType:as}$	42%
RNA1{[fl2r](A)p.r(A)p.[fl2r](C)p.r(C)p.[fl2r](C)p.r(A)p.[fl2r](C)p.r(C)p.[fl2r](A)p.r(C)p.[fl2r](A)p.r(G)p.[fl2r](C)p.r(U)p.[fl2r](A)p.r(G)p.[fl2r](A)p.r(A)p.[fl2r](C)p.r(U)p.r(U)}|RNA2{[fl2r](G)p.r(U)p.r(U)p.r(C)p.r(U)p.r(A)p.[fl2r](G)p.r(C)p.r(U)p.[fl2r](G)p.r(U)p.[fl2r](G)p.[fl2r](G)p.r(U)p.[fl2r](G)p.[fl2r](G)p.[fl2r](G)p.r(U)p.r(U)p.r(U)p.r(U)}$$$RNA1{StrandType:ss}|RNA2{StrandType:as}$	57%
RNA1{[fl2r](A)p.r(A)p.[fl2r](C)p.r(U)p.[fl2r](C)p.r(U)p.[fl2r](A)p.r(C)p.[fl2r](U)p.r(G)p.[fl2r](U)p.r(G)p.[fl2r](G)p.r(A)p.[fl2r](G)p.r(U)p.[fl2r](C)p.r(G)p.[fl2r](G)p.r(T)p.r(T)}|RNA2{r(C)p.r(C)p.[fl2r](G)p.r(A)p.r(C)p.r(U)p.r(C)p.r(C)p.r(A)p.r(C)p.r(A)p.[fl2r](G)p.r(U)p.r(A)p.[fl2r](G)p.r(A)p.[fl2r](G)p.r(U)p.r(U)p.r(T)p.r(T)}$$$RNA1{StrandType:ss}|RNA2{StrandType:as}$	25%
RNA1{[fl2r](A)p.r(A)p.[fl2r](G)p.r(G)p.[fl2r](A)p.r(C)p.[fl2r](C)p.r(U)p.[fl2r](A)p.r(G)p.[fl2r](A)p.r(G)p.[fl2r](G)p.r(A)p.[fl2r](G)p.r(U)p.[fl2r](C)p.r(A)p.r(C)p.r(T)p.r(T)}|RNA2{r(G)p.r(U)p.r(G)p.r(A)p.r(C)p.r(U)p.r(C)p.r(C)p.r(U)p.r(C)p.r(U)p.r(A)p.r(G)p.r(G)p.r(U)p.r(C)p.r(C)p.r(U)p.r(U)p.r(T)p.r(T)}$$$RNA1{StrandType:ss}|RNA2{StrandType:as}$	31%
RNA1{[fl2r](A)p.r(A)p.[fl2r](G)p.r(G)p.[fl2r](C)p.r(C)p.[fl2r](A)p.r(A)p.[fl2r](C)p.r(C)p.[fl2r](G)p.r(A)p.[fl2r](U)p.r(A)p.[fl2r](C)p.r(U)p.[fl2r](U)p.r(C)p.[fl2r](U)p.r(T)p.r(T)}|RNA2{r(A)p.r(G)p.r(A)p.r(A)p.r(G)p.[fl2r](U)p.r(A)p.[fl2r](U)p.r(C)p.r(G)p.r(G)p.[fl2r](U)p.[fl2r](U)p.r(G)p.r(G)p.r(C)p.r(C)p.[fl2r](U)p.[fl2r](U)p.r(T)p.r(T)}$$$RNA1{StrandType:ss}|RNA2{StrandType:as}$	46%
RNA1{[fl2r](A)p.r(A)p.[fl2r](G)p.r(U)p.[fl2r](A)p.r(G)p.[fl2r](U)p.r(C)p.[fl2r](C)p.r(C)p.[fl2r](C)p.r(C)p.[fl2r](U)p.r(U)p.[fl2r](G)p.r(A)p.[fl2r](A)p.r(G)p.r(A)p.r(T)p.r(T)}|RNA2{r(U)p.r(C)p.r(U)p.r(U)p.r(C)p.r(A)p.r(A)p.r(G)p.r(G)p.r(G)p.r(G)p.r(G)p.r(A)p.r(C)p.r(U)p.r(A)p.r(C)p.r(U)p.r(U)p.r(T)p.r(T)}$$$RNA1{StrandType:ss}|RNA2{StrandType:as}$	53%
RNA1{[fl2r](A)p.r(C)p.[fl2r](A)p.r(U)p.[fl2r](A)p.r(G)p.[fl2r](A)p.r(G)p.[fl2r](G)p.r(A)p.[fl2r](A)p.r(G)p.r(A)p.r(C)p.r(G)p.r(C)p.r(G)p.r(G)p.r(A)p.r(T)p.r(T)}|RNA2{[fl2r](U)p.r(C)p.[fl2r](C)p.r(G)p.[fl2r](C)p.r(G)p.[fl2r](U)p.r(C)p.[fl2r](U)p.r(U)p.[fl2r](C)p.r(C)p.[fl2r](U)p.r(C)p.[fl2r](U)p.r(A)p.[fl2r](U)p.r(G)p.r(U)p.r(T)p.r(T)}$$$RNA1{StrandType:ss}|RNA2{StrandType:as}$	57%
RNA1{[fl2r](A)p.r(C)p.[fl2r](C)p.r(U)p.[fl2r](U)p.r(A)p.[fl2r](A)p.r(G)p.[fl2r](G)p.r(A)p.[fl2r](C)p.r(C)p.[fl2r](A)p.r(C)p.[fl2r](C)p.r(G)p.[fl2r](G)p.r(A)p.[fl2r](U)p.r(T)p.r(T)}|RNA2{[fl2r](A)p.r(U)p.r(C)p.r(C)p.r(G)p.r(G)p.r(U)p.r(G)p.r(G)p.r(U)p.r(C)p.r(C)p.r(U)p.r(U)p.[fl2r](A)p.[fl2r](A)p.r(G)p.r(G)p.r(U)p.r(T)p.r(T)}$$$RNA1{StrandType:ss}|RNA2{StrandType:as}$	41%
RNA1{[fl2r](A)p.r(C)p.[fl2r](G)p.r(G)p.[fl2r](C)p.r(U)p.[fl2r](C)p.r(G)p.[fl2r](C)p.r(U)p.[fl2r](A)p.r(C)p.[fl2r](C)p.r(C)p.[fl2r](U)p.r(C)p.[fl2r](G)p.r(A)p.r(C)p.r(T)p.r(T)}|RNA2{r(G)p.r(U)p.r(C)p.r(G)p.r(A)p.r(G)p.r(G)p.r(G)p.r(U)p.r(A)p.r(G)p.r(C)p.r(G)p.r(A)p.r(G)p.r(C)p.r(C)p.r(G)p.r(U)p.r(T)p.r(T)}$$$RNA1{StrandType:ss}|RNA2{StrandType:as}$	72%
RNA1{[fl2r](A)p.r(G)p.[fl2r](A)p.r(A)p.[fl2r](G)p.r(U)p.[fl2r](A)p.r(C)p.[fl2r](C)p.r(A)p.[fl2r](G)p.r(G)p.[fl2r](A)p.r(G)p.[fl2r](G)p.r(C)p.[fl2r](G)p.r(U)p.[fl2r](U)p.r(T)p.r(T)}|RNA2{r(A)p.r(A)p.r(C)p.[fl2r](G)p.r(C)p.r(C)p.r(U)p.r(C)p.r(C)p.r(U)p.[fl2r](G)p.[fl2r](G)p.r(U)p.r(A)p.r(C)p.r(U)p.r(U)p.r(C)p.r(U)p.r(T)p.r(T)}$$$RNA1{StrandType:ss}|RNA2{StrandType:as}$	39%
RNA1{[fl2r](A)p.r(G)p.[fl2r](A)p.r(C)p.[fl2r](U)p.r(A)p.[fl2r](A)p.r(G)p.[fl2r](C)p.r(C)p.[fl2r](C)p.r(A)p.[fl2r](A)p.r(A)p.[fl2r](A)p.r(G)p.[fl2r](G)p.r(G)p.[fl2r](C)p.r(T)p.r(T)}|RNA2{r(G)p.r(C)p.r(C)p.r(C)p.r(U)p.r(U)p.r(U)p.r(U)p.r(G)p.r(G)p.r(G)p.r(C)p.r(U)p.r(U)p.r(A)p.r(G)p.r(U)p.r(C)p.r(U)p.r(T)p.r(T)}$$$RNA1{StrandType:ss}|RNA2{StrandType:as}$	26%
